Experimental data reported in US20260102505A1, “ANTI-CD45-IGN ANTIBODY DRUG CONJUGATES AND USES THEREOF” (Vor Biopharma Inc., priority 2022, published 2026).

How the values were obtained:
[1] = tested on: erythroid-specific BCL11A enhancer-edited CD34+ cells; experiment: Conditioning and engraftment of BCL11A enhancer-edited CD34+ cells in rhesus macaques; assay type: in vivo; settings: busulfan 5.5 mg/kg×4 days, 25-34 weeks
Description: Rhesus macaques were treated with a single dose of anti-CD45-ADC (Ab5-DGN549) at either 0.2 or 0.3 mg/kg followed by engraftment of erythroid-specific BCL11A enhancer-edited CD34+ cells.
For transplant studies, rhesus macaque CD34+ HSPCs were electroporated with 3×NLS SpCas9 protein and two RNAs targeting the +55 and +58 BCL11A erythroid enhancers.
A similar experiment was performed in Rhesus macaques. Rhesus macaques were treated with either 0.2 or 0.3 mg/kg of an anti-CD45-ADC as a single IV bolus. At day 10, the macaques underwent an HSC transplant with autologous gene-edited BCL11a enhancer −/− cells, and were monitored over time (FIG. 15A). A cohort of macaques were treated with Busulfan (5.5-6 mg/kg QDx4) as a control.
Two additional rhesus macaques were conditioned with 0.2 mg/kg anti-CD45 ADC and infused with autologous HSPCs transduced with a barcoded lentiviral vector.

[2] = tested on: relapsed/refractory acute myeloid leukemia (AML) patient-derived xenograft; experiment: PDX model of relapsed/refractory AML, survival; assay type: in vivo, mice; settings: R/R AML PDX; 30 mg/kg QDx5
Description: Anti-malignancy activity of an anti-CD45-ADC was assessed using a patient-derived xenograft (PDX) model of relapsed/refractory acute myeloid leukemia (AML). A single dose of anti-CD45-ADC (Ab5-DGN549) was administered to a group of mice when tumor levels reached ˜10% in peripheral blood, around day 24. Control groups received either PBS, isotype-ADC, CD45 mAb, or ARA-C at 30 mg/kg QDx5. Long-term, disease-free survival was monitored.
The anti-malignancy activity was assessed in a patient-derived xenograft (PDX) model of relapsed/refractory acute myeloid leukemia (AML).

[3] = tested on: recurrent angioimmunoblastic T-cell lymphoma patient-derived xenograft; experiment: PDX model of recurrent angioimmunoblastic T-cell lymphoma, survival; assay type: in vivo, mice
Description: Anti-CD45-ADC was further tested in a PDX model of recurrent angioimmunoblastic T-cell lymphoma. A single dose of anti-CD45-ADC (Ab5-DGN549) was administered to a group of mice when tumor levels reached ˜10% in peripheral blood, around day 27. Control groups received either PBS, isotype-ADC, CD45 mAb, ARA-C at 30 mg/kg QDx5, or Dexamethasone at 5 mg/kg Q3Dx10. Long-term disease survival was monitored.

CS(=O)(=O)OCCCCOS(C)(=O)=O [Busulfan, reference compound]
T cell editing [1]: 8-31%

Nc1ccn([C@@H]2O[C@H](CO)[C@@H](O)[C@@H]2O)c(=O)n1 [ARA-C, reference compound]
median survival [2]: 64 days | median survival ([3]; 30 mg/kg QDx5): 48 days

C[C@@H]1C[C@H]2[C@@H]3CCC4=CC(=O)C=C[C@]4(C)[C@@]3(F)[C@@H](O)C[C@]2(C)[C@@]1(O)C(=O)CO [Dexamethasone]
median survival ([3]; 5 mg/kg Q3Dx10): 48 days
